The results in this text go back to US12590106B2, “Spiromacrocyclic orexin 2 receptor agonists” (H. Lundbeck A/S, priority 2023, dated 2026).

The target in the assay is T1, human Ox2R (Homo sapiens, UniProt O43614).
T1 construct: The gene encoding hOx2R was subcloned into the expression plasmid pcDNA5/FRT/TO; expressed in transfected cells; host or cells: CHO Flp-In cells (pcDNA5/FRT/TO with pOG44 Flp recombinase vector, hygromycin B selection)
T1 sequence (O43614 1-444): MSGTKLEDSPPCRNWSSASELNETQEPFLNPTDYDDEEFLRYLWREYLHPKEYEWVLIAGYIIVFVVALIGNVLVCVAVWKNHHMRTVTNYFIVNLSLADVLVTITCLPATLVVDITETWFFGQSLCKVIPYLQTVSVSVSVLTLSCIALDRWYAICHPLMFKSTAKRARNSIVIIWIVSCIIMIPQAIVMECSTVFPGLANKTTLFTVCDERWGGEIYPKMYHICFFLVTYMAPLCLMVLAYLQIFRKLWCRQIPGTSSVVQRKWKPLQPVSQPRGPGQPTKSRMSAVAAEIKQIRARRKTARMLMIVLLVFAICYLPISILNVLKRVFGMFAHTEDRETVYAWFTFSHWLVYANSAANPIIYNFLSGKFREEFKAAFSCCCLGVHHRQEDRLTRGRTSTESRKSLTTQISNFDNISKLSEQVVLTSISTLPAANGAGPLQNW
Nature of the assay: Measurement of OX2R agonist activity (cell-based calcium release assay). The settings on record: hOx2R-CHO Flp-In cells, n≥2 tests; for EC50: intracellular calcium, read-out: EC50; for Emax / Emax (%): normalized to assay buffer (0%) and 10 μM Danavorexton (100%); for Emax: read-out: Emax (%). In a few lines: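 CHO Flp-In cells stably expressing human Ox2R, dye-loaded 1 h at 37 °C in HBSS/20 mM HEPES pH 7.4 with 2.5 mM probenecid and 10 mM CaCl2, then stimulated with compound.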
For orientation: A change in cytosolic calcium serves as a functional read-out for many receptors and channels.

What is called EC50 is the concentration giving half of the maximal effect. As a reminder, the Emax is the size of the effect at its maximum, as opposed to the concentration needed. In the case of `CS(=O)(=O)N[C@H]1CC[C@@]2(Cc3ccc(F)c(c3)-c3cc(F)cc(F)c3OCc3coc2n3)C1` [Example 69, N-[(1′S,14R)-4,6,19-trifluorospiro[8,12-dioxa-21-azatetracyclo[14.3.1.110,13.02,7]henicosa-1(19),2,4,6,10,13(21),16(20),17-octaene-14,3′-cyclopentane]-1′-yl]methanesulfonamide], the 50% effective concentration (EC50) was found to be 0.2 nM and the Emax turned out to be 96%.

In the case of `CS(=O)(=O)N[C@H]1CC[C@@]2(Cc3cccc(c3)-c3cccc(F)c3OCc3coc2n3)C1` [Example 44, N-[(1′S,14R)-6-fluorospiro[8,12-dioxa-21-azatetracyclo[14.3.1.110,13.02,7]henicosa-1(19),2,4,6,10,13(21),16(20),17-octaene-14,3′-cyclopentane]-1′-yl]methanesulfonamide], the EC50 stood at 0.54 nM and the Emax came to 99%.

In the case of `CS(=O)(=O)N[C@H]1CC[C@@]2(Cc3ccc(F)c(c3)-c3cc(F)cc(F)c3OCc3ccnc2n3)C1` [Example 91, N-[(1′S,15R)-4,6,20-trifluorospiro[8-oxa-13,22-diazatetracyclo[15.3.1.110,14.02,7]docosa-1(20),2,4,6,10,12,14(22),17(21),18-nonaene-15,3′-cyclopentane]-1′-yl]methanesulfonamide], the 50% effective concentration (EC50) was found to be 0.32 nM and the Emax was 100%.

Regarding `O=S(=O)(N[C@H]1CC[C@@]2(Cc3ccc(F)c(c3)-c3cccc(F)c3OCc3coc2n3)C1)C1CC1` [Example 33, N-[(1′S,14R)-6,19-difluorospiro[8,12-dioxa-21-azatetracyclo[14.3.1.110,13.02,7]henicosa-1(19),2,4,6,10,13(21),16(20),17-octaene-14,3′-cyclopentane]-1′-yl]cyclopropanesulfonamide], the EC50 turned out to be 0.1 nM and the Emax is 97%.

For `CS(=O)(=O)N[C@H]1CC[C@@]2(Cc3ccc(C(F)(F)F)c(c3)-c3cccc(F)c3OCc3coc2n3)C1` [Example 23, N-[(1′S,14R)-6-fluoro-19-(trifluoromethyl)spiro[8,12-dioxa-21-azatetracyclo[14.3.1.110,13.02,7]henicosa-1(19),2,4,6,10,13(21),16(20),17-octaene-14,3′-cyclopentane]-1′-yl]methanesulfonamide], the EC50 stood at 1.3 nM and the Emax amounted to 98%.

Consider `C[C@H]1C[C@H](NS(C)(=O)=O)C[C@]12Cc1ccc(F)c(c1)-c1cccc(F)c1OCc1coc2n1` [Example 61, N-[(1′S,4′S,14R)-6,19-difluoro-4′-methyl-spiro[8,12-dioxa-21-azatetracyclo[14.3.1.110,13.02,7]henicosa-1(19),2,4,6,10,13(21),16(20),17-octaene-14,3′-cyclopentane]-1′-yl]methanesulfonamide or N-[(1′R,4′R,14S)-6,19-difluoro-4′-methyl-spiro[8,12-dioxa-21-azatetracyclo[14.3.1.110,13.02,7]henicosa-1(19),2,4,6,10,13(21),16(20),17-octaene-14,3′-cyclopentane]-1′-yl]methanesulfonamide], for which the 50% effective concentration (EC50) turned out to be 140 nM and the “Emax (%)” value is 96%.

As to `CS(=O)(=O)N[C@H]1CC[C@@]2(Cc3cccc(c3)-c3cccnc3OCc3coc2n3)C1` [Example 9, N-[(1′S,14R)-spiro[8,12-dioxa-6,21-diazatetracyclo[14.3.1.110,13.02,7]henicosa-1(20),2,4,6,10,13(21),16,18-octaene-14,3′-cyclopentane]-1′-yl]methanesulfonamide], the concentration giving a half-maximal response (EC50) was found to be 10 nM and the Emax came to 98%.

With `Cc1ccc2cc1-c1cccc(F)c1OCc1coc(n1)[C@]1(CC[C@H](NS(C)(=O)=O)C1)C2` [Example 22, N-[(1′S,14R)-6-fluoro-19-methyl-spiro[8,12-dioxa-21-azatetracyclo[14.3.1.110,13.02,7]henicosa-1(19),2,4,6,10,13(21),16(20),17-octaene-14,3′-cyclopentane]-1′-yl]methanesulfonamide], the 50% effective concentration (EC50) came to 0.82 nM and the Emax stood at 96%.

Regarding `CS(=O)(=O)N[C@H]1CC[C@@]2(Cc3ccc(F)c(c3)-c3cccc(F)c3OCc3nccc2n3)C1` [Example 95, N-[(1′S,15R)-6,20-difluorospiro[8-oxa-11,22-diazatetracyclo[15.3.1.110,14.02,7]docosa-1(20),2,4,6,10,12,14(22),17(21),18-nonaene-15,3′-cyclopentane]-1′-yl]methanesulfonamide], the EC50 is 8 nM and the Emax was 100%.

For `CS(=O)(=O)N[C@H]1CC[C@@]2(CO[C@H]3CC[C@H](CC3)c3ccccc3OCc3noc2n3)C1` [Example 64, N-[(1s,1′S,14R,17s)-spiro[8,12,16-trioxa-11,22-diazatetracyclo[15.2.2.110,13.02,7]docosa-2,4,6,10,13(22)-pentaene-14,3′-cyclopentane]-1′-yl]methanesulfonamide], the EC50 turned out to be 3 nM and the maximal effect (Emax) amounted to 100%.

For `CS(=O)(=O)N[C@@H]1CC[C@]2(Cc3cc(c(F)cc3F)-c3cccc(F)c3OCc3coc2n3)C1` [Example 107, N-[(1′R,14S)-6,17,19-trifluorospiro[8,12-dioxa-21-azatetracyclo[14.3.1.110,13.02,7]henicosa-1(19),2,4,6,10,13(21),16(20),17-octaene-14,3′-cyclopentane]-1′-yl]methanesulfonamide], the EC50 is 2.6 nM and the Emax was found to be 100%.

Consider `CS(=O)(=O)N[C@H]1CC[C@]2(CC1)Cc1ccc(F)c(c1)-c1cccc(F)c1OCc1ccnc2n1` [Example 108, trans-N-(6,20-difluorospiro[8-oxa-13,22-diazatetracyclo[15.3.1.110,14.02,7]docosa-1(21),2,4,6,10,12,14(22),17,19-nonaene-15,4′-cyclohexane]-1′-yl)methanesulfonamide], for which the concentration giving a half-maximal response (EC50) was found to be 0.45 nM and the Emax was 98%.

With `C[C@@H]1C[C@@H](NS(C)(=O)=O)C[C@@]12Cc1ccc(F)c(c1)-c1ccccc1OCc1coc2n1` [Example 62, N-[(1′R,4′R,14S)-19-fluoro-4′-methyl-spiro[8,12-dioxa-21-azatetracyclo[14.3.1.110,13.02,7]henicosa-1(19),2,4,6,10,13(21),16(20),17-octaene-14,3′-cyclopentane]-1′-yl]methanesulfonamide or N-[(1′S,4′S,14R)-19-fluoro-4′-methyl-spiro[8,12-dioxa-21-azatetracyclo[14.3.1.110,13.02,7]henicosa-1(19),2,4,6,10,13(21),16(20),17-octaene-14,3′-cyclopentane]-1′-yl]methanesulfonamide], the concentration giving a half-maximal response (EC50) was 160 nM and the “Emax (%)” value is on record as 100%.

`CS(=O)(=O)N[C@@H]1CC[C@]2(Cc3ccc(F)c(c3)-c3cccc(F)c3OCc3coc2n3)C1` [Example 99, N-[(1′R,14S)-6,19-difluorospiro[8,12-dioxa-21-azatetracyclo[14.3.1.110,13.02,7]henicosa-1(19),2,4,6,10,13(21),16(20),17-octaene-14,3′-cyclopentane]-1′-yl]methanesulfonamide]: the EC50 was determined as 3.3 nM and the Emax is 96%.

For `CS(=O)(=O)N[C@H]1CC[C@@]2(Cc3ccc(F)c(c3)-c3ccccc3OCc3ccnc2n3)C1` [Example 90, N-[(1′S,15R)-20-fluorospiro[8-oxa-13,22-diazatetracyclo[15.3.1.110,14.02,7]docosa-1(20),2,4,6,10,12,14(22),17(21),18-nonaene-15,3′-cyclopentane]-1′-yl]methanesulfonamide], the EC50 turned out to be 1.1 nM and the Emax turned out to be 110%.

In the case of `CS(=O)(=O)N[C@H]1CC[C@@]2(Cc3cccc(c3)-c3cccc(n3)OCCc3coc2n3)C1` [Example 4, N-[(1′S,8R)-spiro[10,15-dioxa-20,21-diazatetracyclo[14.3.1.12,6.19,12]docosa-1(19),2(22),3,5,9(21),11,16(20),17-octaene-8,3′-cyclopentane]-1′-yl]methanesulfonamide], the EC50 stood at 330 nM and the maximal effect (Emax) came out at 100%.

On to `CS(=O)(=O)N[C@H]1CC[C@@]2(Cc3cccc(c3)-c3cccnc3NCc3coc2n3)C1` [Example 74, N-[(1′S,14R)-spiro[12-oxa-6,8,21-triazatetracyclo[14.3.1.110,13.02,7]henicosa-1(20),2,4,6,10,13(21),16,18-octaene-14,3′-cyclopentane]-1′-yl]methanesulfonamide], for which the EC50 came to 92 nM and the Emax was determined as 100%.

For the compound `CS(=O)(=O)N[C@H]1CC[C@@]2(Cc3ccc(F)c(c3)-c3ccc(F)cc3OCc3ccnc2n3)C1` [Example 92, N-[(1′S,15R)-5,20-difluorospiro[8-oxa-13,22-diazatetracyclo[15.3.1.110,14.02,7]docosa-1(20),2,4,6,10,12,14(22),17(21),18-nonaene-15,3′-cyclopentane]-1′-yl]methanesulfonamide], the EC50 came to 16 nM and the Emax came out at 110%.
